In patent US5041567A, “Antibacterial monic acid derivatives” (Beecham Group plc, priority 1982, dated 1991):
Like-named read-outs stand apart in the source and are kept apart here.

Experiments:
M. suipneumoniae JF 435 = experiment: MIC against mycoplasma in vitro; type: cell-based
M. suipneumoniae Str. 11 = experiment: MIC against mycoplasma in vitro; type: cell-based
M. suipneumoniae MS 16 = experiment: MIC against mycoplasma in vitro; type: cell-based
M. suipneumoniae UCD 1 = experiment: MIC against mycoplasma in vitro; type: cell-based
M. suipneumoniae TAM 6N = experiment: MIC against mycoplasma in vitro; type: cell-based; details: M. suipneumoniae TAM 6N, 6 days, 37° C.
[1] = test system: M. suipneumoniae ATCC 25095; experiment: MIC against mycoplasma in vitro; type: cell-based
[2] = test system: M. suipneumoniae NCTC 10110; experiment: MIC against mycoplasma in vitro; type: cell-based; details: M. suipneumoniae NCTC 10110, 6 days, 37° C.
M. hyorhinis ATCC 25021 = experiment: MIC against mycoplasma in vitro; type: cell-based
[3] = test system: M. bovigenitalium ATCC 14173; experiment: MIC against mycoplasma in vitro; type: cell-based
M. dispar NCTC 10125 = experiment: MIC against mycoplasma in vitro; type: cell-based
M. gallisepticum S6 = experiment: MIC against mycoplasma in vitro; type: cell-based
E. coli NCTC 10418 [4] = experiment: MIC against human bacteria in vitro; type: cell-based; details: E. coli NCTC 10418, agar with 5% chocolated horse blood, 18 hours, 37° C.
P. mirabilis 889 = experiment: MIC against human bacteria in vitro; type: cell-based; details: P. mirabilis 889, 5% chocolated horse blood agar, 18 hours
[5] = test system: Ps. aeruginosa NCTC 10662; experiment: MIC against human bacteria in vitro; type: cell-based; details: Ps. aeruginosa NCTC 10662, 5% chocolated horse blood agar, 18 hours
[6] = test system: Haemophilus influenzae Wy21; experiment: MIC against human bacteria in vitro; type: cell-based
[7] = test system: Corynebacterium xerosis 9755; experiment: MIC against human bacteria in vitro; type: cell-based; details: Corynebacterium xerosis 9755, 5% chocolated horse blood agar, 18 hours
Sarcina lutea 8340 = experiment: MIC against human bacteria in vitro; type: cell-based; details: Sarcina lutea 8340, 5% chocolated horse blood agar, 18 hours
Staph. aureus Oxford = experiment: MIC against human bacteria in vitro; type: cell-based; details: Staph. aureus Oxford, 5% chocolated horse blood agar, 18 hours
Staph. aureus Russell = experiment: MIC against human bacteria in vitro; type: cell-based; details: Staph. aureus Russell, 5% chocolated horse blood agar, 18 hours
Staph. aureus W2827 = experiment: MIC against human bacteria in vitro; type: cell-based; details: Staph. aureus W2827, 5% chocolated horse blood agar, 18 hours
[8] = test system: Strep. pyogenes R80/421-A; experiment: MIC against human bacteria in vitro; type: cell-based; details: Strep. pyogenes R80/421-A, 5% chocolated horse blood agar, 18 hours
Strep. agalactiae 2788-B = experiment: MIC against human bacteria in vitro; type: cell-based; details: Strep. agalactiae 2788-B, 5% chocolated horse blood agar, 18 hours
E. coli NCTC 10418 [9] = experiment: MIC against veterinary bacteria in vitro
Experimental: (§1) The activity of the compounds of the Examples against various veterinarily important bacteria, was assayed in vitro using two-fold serial dilutions in Diagnostic Sensitivity Test Agar inoculated with 10^4 organisms.

E. coli E1 = experiment: MIC against veterinary bacteria in vitro
Experimental: as §1

S. dublin S7 = experiment: MIC against veterinary bacteria in vitro
Experimental: as §1

Past. multocida PA1 = experiment: MIC against veterinary bacteria in vitro
Experimental: as §1

Past. haemolytica PA5 = experiment: MIC against veterinary bacteria in vitro; details: Past. haemolytica PA5; Diagnostic Sensitivity Test Agar, 18 hours
Experimental: as §1

[10] = test system: Staph. aureus 152 (pen. sens); experiment: MIC against veterinary bacteria in vitro
Experimental: as §1

[11] = test system: Strep. suis (group D) SPS11; experiment: MIC against veterinary bacteria in vitro
Experimental: as §1

Strep. agalactiae SPA1 = experiment: MIC against veterinary bacteria in vitro
Experimental: as §1

M. suipneumoniae NB12 = experiment: MIC against mycoplasma in vitro; type: cell-based; details: Mesomycoplasma hyopneumoniae, NB12, 144 h
[12] = test system: M. suipneumoniae PW/C/210; experiment: MIC against mycoplasma in vitro; type: cell-based; details: Mesomycoplasma hyopneumoniae, 144 h
Past. multocida PA2 = experiment: MIC against veterinary bacteria in vitro; details: Pasteurella multocida, PA2, 18 h
Experimental: as §1

[13] = Staphylococcus aureus, read-out: MIC

Measured: MIC

CC(=Cc1cnc(-c2ccccc2)o1)CC1OCC(CC2OC2C(C)C(C)O)C(O)C1O (centres unmarked) [Example 35, 5-(1-Normon-2-yl)-2-phenyloxazole A]
> 10 µg/mL: M. suipneumoniae JF 435; M. suipneumoniae JF 435, 6 days, 37° C. | M. suipneumoniae Str. 11; M. suipneumoniae Str. 11, 6 days, 37° C. | M. suipneumoniae MS 16; M. suipneumoniae MS 16, 6 days, 37° C. | M. suipneumoniae UCD 1; M. suipneumoniae UCD 1, 6 days, 37° C. | M. suipneumoniae TAM 6N | [1]; M. suipneumoniae ATCC 25095, 6 days, 37° C. | [2] | M. hyorhinis ATCC 25021; M. hyorhinis ATCC 25021, 6 days, 37° C. | M. dispar NCTC 10125; M. dispar NCTC 10125, 6 days, 37° C. | M. gallisepticum S6; M. gallisepticum S6, 6 days, 37° C.
> 128 µg/mL: E. coli NCTC 10418 [4] | P. mirabilis 889 | [5] | [7] | Sarcina lutea 8340 | Staph. aureus Oxford | Staph. aureus Russell | Staph. aureus W2827 | [8] | Strep. agalactiae 2788-B
5.0 µg/mL: [3]; M. bovigenitalium ATCC 14173, 6 days, 37° C.
> 80 µg/mL: E. coli NCTC 10418 [9]; E. coli NCTC 10418, Diagnostic Sensitivity Test Agar, 18 hours, 37° C. | E. coli E1; E. coli E1, Diagnostic Sensitivity Test Agar, 18 hours, 37° C. | S. dublin S7; S. dublin S7, Diagnostic Sensitivity Test Agar, 18 hours | Past. haemolytica PA5 | [10]; Staph. aureus 152 (pen. sens), Diagnostic Sensitivity Test Agar, 18 hours | [11]; Strep. suis (group D) SPS11, Diagnostic Sensitivity Test Agar, 18 hours | Strep. agalactiae SPA1; Strep. agalactiae SPA1, Diagnostic Sensitivity Test Agar, 18 hours
80 µg/mL: Past. multocida PA1; Past. multocida PA1, Diagnostic Sensitivity Test Agar, 18 hours
128 µg/mL: [6]; Haemophilus influenzae Wy21, 5% chocolated horse blood agar, 18 hours

C/C(=C\c1ncc(-c2ccccc2[N+](=O)[O-])o1)C[C@@H]1OC[C@H](C[C@@H]2O[C@H]2[C@@H](C)[C@H](C)O)[C@@H](O)[C@H]1O [Example 26, 5-o-Nitrophenyl-2-(1-normon-2-yl)oxazole A]
> 80 µg/mL: E. coli NCTC 10418 [9]; Escherichia coli, NCTC10418, 18 h | E. coli E1; Escherichia coli, E1, 18 h | S. dublin S7; Salmonella enterica, S7, 18 h
2 µg/mL: Strep. agalactiae 2788-B; Streptococcus agalactiae, read-out: MIC
0.25 µg/mL: [3]; 144 h | [6]; Haemophilus influenzae, WY21, 18 h
2.5 µg/mL: M. suipneumoniae NB12 | M. suipneumoniae JF 435; Mesomycoplasma hyopneumoniae, JF435, 144 h | M. suipneumoniae Str. 11; Mesomycoplasma hyopneumoniae, STR.11, 144 h | M. suipneumoniae UCD 1; Mesomycoplasma hyopneumoniae, UCD1, 144 h | [1]; Mesomycoplasma hyopneumoniae, ATCC25095, 144 h | M. hyorhinis ATCC 25021; Mesomycoplasma hyorhinis, ATCC25021, 144 h | M. gallisepticum S6; Mycoplasmoides gallisepticum, S6, 144 h | [10]; Staphylococcus aureus, 18 h | Strep. agalactiae SPA1; Streptococcus agalactiae, SPA1, 18 h
4 µg/mL: Staph. aureus Oxford; [13] | Staph. aureus Russell; [13] | Staph. aureus W2827; [13]
10 µg/mL: Past. multocida PA1; Pasteurella multocida, PA1, 18 h | [11]; Streptococcus suis, 18 h
> 128 µg/mL: E. coli NCTC 10418 [4]; Escherichia coli, NCTC10418, read-out: MIC | P. mirabilis 889; Proteus mirabilis, read-out: MIC | [5]; Pseudomonas aeruginosa, NCTC10662, read-out: MIC | [7]; read-out: MIC | Sarcina lutea 8340; Micrococcus luteus, read-out: MIC
5 µg/mL: M. suipneumoniae TAM 6N; Mesomycoplasma hyopneumoniae, TAM6N, 144 h, read-out: MIC | [2]; Mesomycoplasma hyopneumoniae, NCTC10110, 144 h, read-out: MIC | Past. multocida PA2
1 µg/mL: M. suipneumoniae MS 16; Mesomycoplasma hyopneumoniae, MS16, 144 h | [12] | M. dispar NCTC 10125; 144 h | [8]; Streptococcus pyogenes, read-out: MIC
